Here are results for 12 compounds from publication PMC9301698 (ACS Omega, 2022).

One data set addresses butyrylcholinesterase. The following applies: read-out: butyrylcholinesterase inhibitory activity IC50; cited from earlier work.
The test system of the next data set is HT-29. The note with it: read-out: cytotoxicity against HT-29 IC50; cited from earlier work.
The subject of the next data set is RAW 264.7 cells. Briefly: MTT cytotoxicity assay in mammalian cells. The following applies: Mus musculus, RAW264.7, read-out: IC50 RAW 264.7, MTT. It counts as cell-based.
A further data set deals with A549 cells. Briefly: MTT cytotoxicity assay, lung cancer. It counts as cell-based, human. The following applies: Homo sapiens, A549, read-out: IC50 A549 (lung cancer). On the technique in general: Tetrazolium assays rely on reduction of a dye to a coloured formazan, in cell work by metabolically active cells.
Data set [1] is described as follows: MTT cytotoxicity assay, colorectal cancer. The following applies: human, SW480 cells (colorectal cancer). It counts as cell-based, human.
A further data set has as its system SW480 cells. Briefly: MTT cytotoxicity assay, colorectal cancer. The note with it: Homo sapiens, SW480, read-out: IC50 SW480 (Colorectal cancer), MTT. In kind it is cell-based, human.
The test system of another data set is K562 cells. The experiment in a line: MTT cytotoxicity assay, leukemia. It counts as cell-based, human. The note with it: Homo sapiens, K562, read-out: IC50 K562 (leukemia), MTT.
Data set [2] in a line: cytotoxicity screening, summary over cell lines. It counts as cell-based. The following applies: mouse, human.
The nature of data set [3]: MTT cytotoxicity assay in mammalian cells. In kind it is cell-based. The note with it: mouse, RAW 264.7 cells.
Data set [4] can be described thus: MTT cytotoxicity assay, lung cancer. It counts as cell-based, human. The note with it: human, A549 cells (lung cancer).
Data set [5] is described as follows: MTT cytotoxicity assay, leukemia. It counts as cell-based, human. The note with it: human, K562 cells (leukemia).
In data set [6] the target is T1, α-glucosidase (Saccharomyces cerevisiae, UniProt P53341). The experiment in a line: colorimetric α-glucosidase inhibitory assay. It counts as biochemical. The following applies: mean ± SD.
T1 sequence (P53341 whole entry): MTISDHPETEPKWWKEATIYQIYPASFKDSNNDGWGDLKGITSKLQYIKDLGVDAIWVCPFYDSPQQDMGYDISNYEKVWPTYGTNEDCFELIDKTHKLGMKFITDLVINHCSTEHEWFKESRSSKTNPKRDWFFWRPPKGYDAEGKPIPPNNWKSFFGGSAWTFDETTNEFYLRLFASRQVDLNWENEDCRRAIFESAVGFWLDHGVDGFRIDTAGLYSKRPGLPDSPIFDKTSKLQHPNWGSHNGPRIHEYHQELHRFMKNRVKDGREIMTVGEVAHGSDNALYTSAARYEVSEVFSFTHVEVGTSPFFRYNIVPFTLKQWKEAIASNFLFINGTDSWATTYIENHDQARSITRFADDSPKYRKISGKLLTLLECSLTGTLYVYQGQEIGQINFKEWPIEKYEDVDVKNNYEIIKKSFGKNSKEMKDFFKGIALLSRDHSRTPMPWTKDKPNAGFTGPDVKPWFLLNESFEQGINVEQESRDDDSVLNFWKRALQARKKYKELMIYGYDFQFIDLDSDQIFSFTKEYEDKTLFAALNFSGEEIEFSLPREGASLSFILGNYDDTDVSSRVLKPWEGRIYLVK
A further data set addresses T2, α-amylase (Sus scrofa, UniProt P00690).
T2 sequence (P00690 16-511): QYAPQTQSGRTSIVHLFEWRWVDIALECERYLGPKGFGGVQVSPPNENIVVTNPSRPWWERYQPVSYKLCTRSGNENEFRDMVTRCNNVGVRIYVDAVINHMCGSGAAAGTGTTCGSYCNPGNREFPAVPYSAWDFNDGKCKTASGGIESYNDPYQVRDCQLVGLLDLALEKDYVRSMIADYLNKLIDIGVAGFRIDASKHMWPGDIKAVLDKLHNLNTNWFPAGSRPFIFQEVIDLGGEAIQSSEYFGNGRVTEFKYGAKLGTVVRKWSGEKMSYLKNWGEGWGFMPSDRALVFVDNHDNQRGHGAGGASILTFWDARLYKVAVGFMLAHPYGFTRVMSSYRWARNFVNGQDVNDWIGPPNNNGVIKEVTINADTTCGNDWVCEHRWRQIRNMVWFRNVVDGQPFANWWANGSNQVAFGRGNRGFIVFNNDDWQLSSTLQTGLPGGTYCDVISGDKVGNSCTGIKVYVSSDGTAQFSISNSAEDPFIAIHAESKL
Briefly: α-amylase inhibitory assay. It counts as biochemical. The following applies: at a concentration of 100 μg/mL; mean ± SD.

In another data set the test system is HepG2 cell lines. The note with it: read-out: cytotoxicity against HepG2 cell lines IC50; cited from earlier work.
The conditions of data set [7]: cited from earlier work.
In data set [8] the target is T1, α-glucosidase. The note with it: read-out: α-glucosidase inhibitory activity IC50; cited from earlier work.

Regarding `COc1ccc(-c2coc3c4c(ccc3c2=O)OC(C)(C)C=C4)cc1OC` [4′,5′-dimethoxy-6,6-dimethylpyranoisoflavone], the 50% inhibitory concentration (IC50) at butyrylcholinesterase is 2.34 µM.

Consider `C=C(C)[C@H]1Cc2c(ccc3c2O[C@@H]2COc4cc(OC)c(OC)cc4[C@]2(O)C3=O)O1` [(−)-Hydroxyrotenone], for which the concentration for half-maximal inhibition (IC50) in the data set on HT-29 is 0.1 µM.

As to `C=C(C)[C@H]1Cc2c(ccc3c2O[C@@H]2COc4cc(OC)c(OC)cc4[C@@H]2C3=O)O1` [(−)-rotenone], the IC50 with HT-29 was 0.3 µM.

Turning to `CC(C)=CCc1c(O)c(CC=C(C)C)c2occ(-c3ccc(O)cc3)c(=O)c2c1O` [Compound 10, 6,8-diprenylgenistein], the IC50 with RAW 264.7 cells is more than 100 µM. In addition, the half-maximal inhibitory concentration (IC50) in the data set on A549 cells was more than 100 µM. In addition, in data set [1], the viability at 6.25 μg/mL turned out to be 117.5 ± 0.31%, the viability at 12.5 μg/mL is 118.8 ± 0.92%, the viability at 25 μg/mL stood at 117 ± 3.08% and the viability at 50 μg/mL came out at 94.7 ± 3.85%. In addition, the viability at 100 μg/mL in data set [1] stood at 77 ± 3.95%. Also, the IC50 with SW480 cells is more than 100 µM. In addition, the IC50 in the data set on K562 cells is more than 100 µM. Further, in [2] (RAW 264.7 and SW480 cells), the viability is 5.66 to 77%.

With `C=C(C)C(O)Cc1c(O)c(CC=C(C)C)c2occ(-c3ccc(O)cc3)c(=O)c2c1O` (centres unmarked) [Compound 13, isoerysenegalensein E], in [3], the viability at 24 h, 6.25 μg/mL came to 103 ± 8.01%; the viability at 24 h, 12.5 μg/mL is 100 ± 2.13%; the viability at 24 h, 25 μg/mL stood at 61.9 ± 3.12%; the viability at 24 h, 50 μg/mL was determined as 47.3 ± 2.94%. Moreover, in data set [3], the viability at 24 h, 100 μg/mL came out at 29.4 ± 3.72%. The half-inhibitory concentration (IC50) in the data set with RAW 264.7 cells is 56.1 µM. Also, the IC50 in the data set with A549 cells was more than 100 µM. Moreover, in data set [1], the viability at 6.25 μg/mL is 94 ± 4.18%, the viability at 12.5 μg/mL was determined as 92.8 ± 1.57%, the viability at 25 μg/mL was determined as 90.4 ± 1.91% and the viability at 50 μg/mL was found to be 89.5 ± 3.29%. Moreover, the viability at 100 μg/mL in [1] is 59.5 ± 1.3%. The IC50 with SW480 cells is more than 100 µM. The IC50 in the data set with K562 cells is more than 100 µM. Also, the viability in data set [2] (RAW 264.7 and SW480 cells) is 5.66 to 77%.

In the case of `CC(C)=CCc1c2c(c3occ(-c4ccc(O)cc4)c(=O)c3c1O)CC(C(C)(C)O)O2` (centres unmarked) [Compound 16, senegalensin], in [3], the viability at 24 h, 6.25 μg/mL worked out at 154 ± 1.59%; the viability at 24 h, 12.5 μg/mL was 139 ± 6.94%; the viability at 24 h, 25 μg/mL turned out to be 58.7 ± 2.23%; the viability at 24 h, 50 μg/mL was found to be 6 ± 0.65%. Moreover, in data set [3], the viability at 24 h, 100 μg/mL was 5.3 ± 0.01%. For the same compound, the IC50 in the data set on RAW 264.7 cells was determined as 51.5 µM. Further, in data set [4], the viability at 6.25 μg/mL is 126 ± 1.36%, the viability at 12.5 μg/mL was found to be 116 ± 2.68%, the viability at 25 μg/mL worked out at 97 ± 9.76% and the viability at 50 μg/mL was determined as 6.25 ± 0.33%. For the same compound, in [4], the viability at 100 μg/mL is 4.53 ± 0.07%. Besides, in the data set on A549 cells, the IC50 turned out to be 70.9 µM. Also, in data set [1], the viability at 6.25 μg/mL is 166 ± 6.12%, the viability at 12.5 μg/mL is 142 ± 1.71%, the viability at 25 μg/mL is 122 ± 6.64% and the viability at 50 μg/mL turned out to be 6.6 ± 0.14%. For the same compound, the viability at 100 μg/mL in data set [1] is 6.09 ± 0.11%. Also, the IC50 in the data set on SW480 cells came to 69.8 µM. For the same compound, in data set [5], the viability at 6.25 μg/mL was determined as 76.6 ± 3.38%, the viability at 12.5 μg/mL came to 28.8 ± 0.39%, the viability at 25 μg/mL is 11.54 ± 0.06% and the viability at 50 μg/mL is 10.2 ± 0.15%. In addition, in data set [5], the viability at 100 μg/mL came out at 9.7 ± 0.15%. In the data set on K562 cells, the IC50 worked out at 21.5 µM. Besides, the viability in data set [2] (A549, SW480, K562 and RAW 264.7 cells) lay in the range of 4.53 to 48.2%.

As for `C[C@H]1O[C@H](O[C@H]2[C@H](O)[C@@H](O)[C@@H](O[C@H]3[C@H](O)[C@@H](O)C(O)O[C@@H]3CO)O[C@@H]2CO)[C@H](O)[C@@H](O)[C@@H]1N[C@H]1C=C(CO)[C@@H](O)[C@H](O)[C@H]1O` (some centres unmarked) [acarbose], the “α-glucosidase inhibition, inhibition rate (%)” value on α-glucosidase [6] came out at 57.2 ± 0.8%. For the same compound, on α-amylase, the “α-amylase inhibition, inhibition rate (%)” value amounted to 58.5 ± 1.9%.

As to `COc1cc(OC)c(-c2coc3c4c(ccc3c2=O)OC(C)(C)C=C4)cc1OC` [barbigerone], in the data set on HepG2 cell lines, the IC50 is 0.61 µM.

Turning to `COc1cc2c(cc1OC)[C@@H]1C(=O)c3ccc4c(c3O[C@@H]1CO2)C=CC(C)(C)O4` [deguelin], at butyrylcholinesterase, the IC50 is 14.2 µM.

Turning to `COc1cccc2c1C(=O)c1c(O)c3c(c(O)c1C2=O)C[C@@](O)(C(=O)CO)C[C@@H]3O[C@H]1C[C@H](N)[C@H](O)[C@H](C)O1` [doxorubicin, reference compound], in data set [3], the viability at 24 h, 6.25 μg/mL came to 4.62 ± 0.17%; the viability at 24 h, 12.5 μg/mL worked out at 5.35 ± 0.27%; the viability at 24 h, 25 μg/mL was found to be 4.59 ± 0.01%; the viability at 24 h, 50 μg/mL was found to be 4.44 ± 0.08%. For the same compound, the viability at 24 h, 100 μg/mL in [3] turned out to be 5.96 ± 0.42%. Also, in the data set on RAW 264.7 cells, the IC50 was less than 11.5 µM. In [4], the viability at 6.25 μg/mL was found to be 79.6 ± 1.89%, the viability at 12.5 μg/mL came to 74 ± 0.75%, the viability at 25 μg/mL is 57.7 ± 1.71% and the viability at 50 μg/mL is 52.8 ± 1.51%. The viability at 100 μg/mL in data set [4] is 10.1 ± 3.11%. In the data set on A549 cells, the IC50 stood at 134 µM. Besides, in data set [1], the viability at 6.25 μg/mL is 80 ± 2.48%, the viability at 12.5 μg/mL was 73.9 ± 1.19%, the viability at 25 μg/mL came out at 60.2 ± 1.51% and the viability at 50 μg/mL came to 17.8 ± 1.49%. Also, the viability at 100 μg/mL in [1] amounted to 16.8 ± 1.29%. For the same compound, the IC50 in the data set on SW480 cells is 53.4 µM. Besides, in data set [5], the viability at 12.5 μg/mL worked out at 70.3 ± 0.89%, the viability at 25 μg/mL amounted to 59.5 ± 1.8%, the viability at 50 μg/mL was 49.6 ± 2.2% and the viability at 100 μg/mL amounted to 32.4 ± 0.89%. Moreover, in the data set on K562 cells, the IC50 turned out to be 86.8 µM.

For `COc1cc2c(cc1OC)[C@]1(O)C(=O)c3ccc4c(c3O[C@@H]1CO2)C=CC(C)(C)O4` [tephrosin], in data set [7] (at a concentration of 3.125 μM), the cell toxicity entry is given as “without cell toxicity”. Also, in data set [7] (read-out: anti-inflammatory activity IC50), the IC50 is less than 10 µM.

Take berectones A: at α-glucosidase [8], the IC50 is 144 µM.

What is called IC50 is the concentration at which inhibition is half-maximal. Usually viability stands for a read-out of living cells in per cent, often relative to untreated cells.
